From the text: (§1) Solubility may be determined by measuring the amount of light transmittance (a light transmittance value) through a simple mixture of the non-volatile silicone fluid and liquid activation enhancer at the same weight/weight concentrations as in a final antiperspirant composition.
as §1, with “Solubility of a liquid activation enhancer in a non-volatile silicone” for “Solubility”, “(light” for “(a light”
The Spectronic Genesys 10 Vis utilizes a tungsten-halogen light source and has a spectral bandwidth of 5 nm, a wavelength range of 325 to 1100 nm, accuracy of ±1 nm and a repeatability of ±0.5 nm. Readouts include absorbance, transmittance and concentration. The spectrophotometer is set to 640 nm wavelength and the percent transmittance mode/readout. Polystyrene spectrometer cuvettes having a 1 cm optical light path and transmittance between ˜340 nm and ˜900 nm are used. One suitable example of a spectrometer cuvette is available from VWR International LLC under Catalog #97000-584 having a 2.5 to 4.5 ml capacity. The spectrophotometer is calibrated according to the manufacturer's instructions using a reference cuvette and composition comprised of just the non-volatile silicone fluid of interest. For example, if the test composition comprises 50 centistoke dimethicone and 15% w/w of isopropyl myristate, then the spectrometer is calibrated using a cuvette containing just 50 centistoke dimethicone. Sample cuvettes are filled sufficiently with a test composition of a non-volatile silicone fluid and liquid activation enhancer so that the light path of the spectrophotometer passes through the test composition in the cuvette. The sample cuvettes are shaken well just prior to taking a light transmittance reading.

Molecule | light transmittance value | solubility in 50 centistoke dimethicone
CCCCCCCCCCC(CO)CCCCCCCC (centres unmarked) [octyldodecanol] | – | soluble in the 50 centistoke dimethicone at some (lower) concentrations
mineral oil | – | soluble in 50 centistoke dimethicone at some (lower) concentrations
PPG-14 butyl ether | – | insoluble
CCCCCCCCCCCCCCCCCC(=O)OCCCC [butyl stearate] | about 100% | –

Continued, in another order:

light transmittance value | Molecule | solubility in 50 centistoke dimethicone
about 101% | CCCCCCCCCCCCCC(=O)OC(C)C [isopropyl myristate] | –
about 101% | CCCCCCCCCCCCCCCC(=O)OC(C)C [isopropyl palmitate] | –
about 100% | CCCCCCCCCCCCCC(C)C [isohexadecane] | soluble

From US20150023883A1, “Antiperspirant Spray Devices and Compositions” (The Procter & Gamble Company, priority 2013, published 2015)
